Laboratory results reported in patent US11298363B2, “Triazolobenzazepines as vasopressin V1a receptor antagonists” (RICHTER GEDEON NYRT., priority 2017, dated 2022).

How the values were obtained:
[1] = molecular target: T1, human vasopressin V1a receptor (Homo sapiens, UniProt P37288); test: Human vasopressin V1a receptor binding assay; settings: 1321N1 cell membranes, [3H]vasopressin; read-out: Ki (nM) on hV1a cell line
In short: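 Radioligand competition on membranes from cells expressing human V1a receptor; incubation 60 minutes at 27° C., non-specific binding with 1.2×10^−6 M unlabeled (Arg^8)-vasopressin, filtration separation. Ki by Cheng-Prusoff using Scatchard-derived KD, from at least two independent experiments.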

[2] = molecular target: human vasopressin V2 receptor (Homo sapiens, UniProt P30518); test: Human vasopressin V2 receptor binding assay on 1321N1 cell line; settings: for inhibition at 1 µM: read-out: inhibition % at 1 μM on hV2 1321N1 cell line; for Ki: 1321N1 cell line, read-out: Ki on hV2 1321N1 cell line
Chain of human vasopressin V2 receptor (P30518 whole entry): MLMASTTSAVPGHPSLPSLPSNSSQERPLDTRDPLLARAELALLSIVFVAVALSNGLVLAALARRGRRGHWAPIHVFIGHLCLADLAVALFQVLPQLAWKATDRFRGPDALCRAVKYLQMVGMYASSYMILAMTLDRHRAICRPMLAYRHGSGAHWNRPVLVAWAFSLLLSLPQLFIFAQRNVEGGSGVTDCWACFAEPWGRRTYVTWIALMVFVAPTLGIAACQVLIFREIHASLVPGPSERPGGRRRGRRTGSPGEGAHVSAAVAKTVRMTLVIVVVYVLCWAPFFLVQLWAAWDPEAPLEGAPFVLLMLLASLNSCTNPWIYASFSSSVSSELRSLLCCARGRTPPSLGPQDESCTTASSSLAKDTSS
Protocol: Human Vasopressin V2 Receptor Binding Assay Cells and Radioligand
To determine the final affinity value, the results of at least two independent experiments were taken into account.
Non-specific binding values were determined in the presence of an unlabeled 1.2×10^−6 M (Arg^8)-vasopressin. Samples were incubated in a total volume of 0.55 ml for 90 minutes at 27° C. Membrane-bound and free ligands were separated by filtration through a 0.5% polyethyleneimine-impregnated UniFilter® GF/B™. After drying the filter plates, 40 μl Microscint-20 (Packard) scintillation cocktail was added to the samples. Finally, radioactivity was measured using MicroBeta^2 Microplate Counter (Perkin Elmer).
The radioligand displacement ability of a substance is determined in at least two independent experiments. Specific radioligand binding can be defined as the difference between total and non-specific binding in the presence of a saturation amount of the unlabeled ligand or different concentrations of the substance to be tested. The results are given as a percentage of inhibition of the specific binding achieved in the presence of the substance to be tested.
During fitting, the asymptotes are not fixed. The Ki values (inhibition constant) are given with Cheng-Prusoff equation Ki=IC50/[1+(L/KD)] wherein [L] is the radioligand concentration used in the experiment and [KD] is the affinity of the radioactively labelled ligand for the given receptor. The KD is determined beforehand using the Scatchard curve.

[3] = molecular target: T1, human vasopressin V1a receptor; test: Functional assay on human vasopressin V1a receptor expressing cell line (intracellular Ca2+ fluorescence); format: cell-based; settings: 1321N1 cells, (Arg8)-vasopressin at EC80; read-out: IC50 (nM) on hV1a cell line
mouse V1a receptor = mouse V1a receptor (Mus musculus, UniProt Q62463); test: Functional V1a in vivo test: inhibition of oxytocin-induced scratching behaviour; settings: mice, 10 mg/kg p.o. pretreatment
Chain of mouse V1a receptor (Q62463 whole entry): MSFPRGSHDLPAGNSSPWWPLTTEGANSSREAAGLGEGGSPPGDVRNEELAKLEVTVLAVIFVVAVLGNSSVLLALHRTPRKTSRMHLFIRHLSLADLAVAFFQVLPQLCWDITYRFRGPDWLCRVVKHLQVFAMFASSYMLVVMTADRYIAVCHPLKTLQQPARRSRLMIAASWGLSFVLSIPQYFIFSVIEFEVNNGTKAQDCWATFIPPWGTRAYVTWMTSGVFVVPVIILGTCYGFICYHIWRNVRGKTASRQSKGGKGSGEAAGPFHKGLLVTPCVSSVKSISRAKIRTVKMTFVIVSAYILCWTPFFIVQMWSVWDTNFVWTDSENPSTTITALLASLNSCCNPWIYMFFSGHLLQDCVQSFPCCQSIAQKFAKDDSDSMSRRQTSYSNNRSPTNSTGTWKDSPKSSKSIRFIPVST
Protocol: Functional V1a In Vivo Test
Male mice (NMRI, ToxiCoop) weighing 18-40 g were used. Animals were kept at least 5 days after delivery, during housing and measurements they were fed and drink ad libitum. The experiments were permitted by the Local Animal Protection Committee and carried out in accordance with the European Animal Protection Directives (EU Directive 2010/63/EU).
Animal behaviour was measured by an automated behavioral analysis system (LABORAS™). The sensors located below platforms detect the mechanical vibration generated by the movement of animal, and transform into an electrical signal (Quinn et al., J Neurosci Methods 2003, 130:83-92). After analyzing signals, the system analyzes the time spent with the following behavioral parameters: locomotion, immobility, climbing, grooming. The grooming algorithm by definition is able to measure the scratching behavioral response. During the experiment, mice were pretreated with the test substance or vehicle, and after the pretreatment period scratching-inducing compound (s.c. 0.3 mg/kg oxytocin) was administered, and then the animals were individually placed into measuring cages. […] To reduce the exploratory activity, the animals were measured after a 1-hour habituation to the cage. The behavioural parameters were compared to the parallel measured parameters of the control animals.
The behavioural inhibitory effect of the substances was calculated with average values of parallel measured vehicle treated groups and presented as the percentage of inhibition: 0% was expressed as average value of scratching behaviour of vehicle pretreated animals (and phys. saline s.c. pretreated with vehicle), while 100% was expressed as average value of scratching of vehicle pretreated animals that received oxytocin subcutaneously. For statistical analysis one-way analysis of variance (ANOVA) with Tukey post hoc test were used.

T1 sequence (P37288 whole entry): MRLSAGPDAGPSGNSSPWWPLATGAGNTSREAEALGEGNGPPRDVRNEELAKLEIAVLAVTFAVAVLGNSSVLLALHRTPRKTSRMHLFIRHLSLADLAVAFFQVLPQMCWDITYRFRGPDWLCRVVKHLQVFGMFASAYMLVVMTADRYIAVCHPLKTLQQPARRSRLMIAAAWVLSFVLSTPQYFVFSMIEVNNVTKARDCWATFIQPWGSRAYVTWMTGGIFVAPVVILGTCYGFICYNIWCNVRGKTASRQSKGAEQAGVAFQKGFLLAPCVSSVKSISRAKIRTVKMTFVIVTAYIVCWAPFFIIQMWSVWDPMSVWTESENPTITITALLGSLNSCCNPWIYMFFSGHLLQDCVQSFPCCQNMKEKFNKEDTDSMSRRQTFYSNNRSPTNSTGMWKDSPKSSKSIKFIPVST

Row | Compound | Ki [1] | inhibition at 1 µM [2] | IC50 [3] | Ki [2] | inhibition (%) of oxytocin-induced scratching behaviour response (mouse V1a receptor)
1 | CC(C)(C)OC(=O)NC1Cc2cc(Cl)ccc2-n2c(nnc2C2CCN(c3ccccn3)CC2)C1 (stereo not drawn) [Example 1, Tert-butyl [8-chloro-1-[1-(pyridin-2-yl)piperidin-4-yl]-5,6-dihydro-4H-[1,2,4]triazolo[4,3-a][1]benzazepin-5-yl]carbamate] | 6 nM | 4% | 95 nM |  | 
2 | NC1Cc2cc(Cl)ccc2-n2c(nnc2[C@H]2CC[C@H](Oc3ccccn3)CC2)C1 (stereo partly drawn) [Example 6, 8-chloro-1-[trans-4-(pyridin-2-yloxy)cyclohexyl]-5,6-dihydro-4H-[1,2,4]triazolo[4,3-a][1]benzazepine-5-amine] | 2 nM | 3% | 9 nM |  | 
3 | CS(=O)(=O)NC1Cc2cc(Cl)ccc2-n2c(nnc2[C@H]2CC[C@H](Oc3ccccn3)CC2)C1 (stereo partly drawn) [Example 18, N-{8-chloro-1-[trans-4-(pyridin-2-yloxy)cyclohexyl]-5,6-dihydro-4H-[1,2,4]triazolo[4,3-a][1]benzazepin-5-yl}methanesulfonamide] | 0.5 nM |  | 1.6 nM | 255 nM | 
4 | CN(C1Cc2cc(Cl)ccc2-n2c(nnc2[C@H]2CC[C@H](Oc3ccccn3)CC2)C1)S(C)(=O)=O (stereo partly drawn) [Example 19, N-{8-chloro-1-[trans-4-pyridin-2-loxcyclohexyl]-5,6-dihydro-4H-[1,2,4]triazolo[4,3-a][1]benzazepin-5-yl}-N-methylmethanesulfonamide] | 0.4 nM |  | 1.8 nM | 610 nM | 
5 | CN(C)S(=O)(=O)NC1Cc2cc(Cl)ccc2-n2c(nnc2[C@H]2CC[C@H](Oc3ccccn3)CC2)C1 (stereo partly drawn) [Example 20, N′-{8-chloro-1-[trans-4-(pyridin-2-yloxy)cyclohexyl]-5,6-dihydro-4H-[1,2,4]triazolo[4,3-a][1]benzazepin-5-yl}-N,N-dimethylsulfamide] | 0.7 nM |  | 1 nM | 365 nM | 
6 | CN(C)CCOC1Cc2cc(Cl)ccc2-n2c(nnc2[C@H]2CC[C@H](Oc3ccccn3)CC2)C1 (stereo partly drawn) [Example 60, 2-({8-chloro-1-[trans-4-(pyridin-2-yloxy)cyclohexyl]-5,6-dihydro-4H-[1,2,4]triazolo[4,3-a][1]benzazepin-5-yl}oxy)-N,N-dimethylethanamine] | 2 nM |  | 45 nM |  | 40%
7 | FC(F)(F)[C@H]1CC[C@H](c2nnc3n2-c2ccc(Cl)cc2CC2(C3)OCCO2)CC1 [Example 61, 8′-chloro-1′-[trans-4-(trifluoromethyl)cyclohexyl]-4′H,6′H-spiro[1,3-dioxolane-2,5′-[1,2,4]triazolo[4,3-a][1]benzazepine]] | 0.4 nM |  | 2.5 nM |  | 41%
8 | N#Cc1ccc2c(c1)CC1(Cc3nnc([C@H]4CC[C@H](Oc5ccccn5)CC4)n3-2)OCCO1 [Example 66, 1′-[trans-4-(pyridin-2-yloxy)cyclohexyl]-4′H,6′H-spiro[1,3-dioxolane-2,5′-[1,2,4]triazolo[4,3-a][1]benzazepine]-8′-carbonitrile] | 0.8 nM |  | 2.2 nM |  | 76%
9 | Clc1ccc2c(c1)CC1(Cc3nnc([C@H]4CC[C@H](Oc5ccccn5)CC4)n3-2)OCCCO1 [Example 88, 8′-chloro-1′-[trans-4-(pyridin-2-yloxy)cyclohexyl]-4′H,6′H-spiro[1,3-dioxane-2,5′-[1,2,4]triazolo[4,3-a][1]benzazepine]] | 0.3 nM |  | 0.9 nM |  | 79%

Further lines, results first:

Row | Ki [1] | inhibition at 1 µM [2] | IC50 [3] | Ki [2] | inhibition (%) of oxytocin-induced scratching behaviour response (mouse V1a receptor) | Compound
10 | 0.4 nM |  | 1.9 nM |  | 50% | FC(F)(F)[C@H]1CC[C@H](c2nnc3n2-c2ccc(Cl)cc2CC2(C3)OCCCO2)CC1 [Example 89, 8′-chloro-1′-[trans-4-(trifluoromethyl)cyclohexyl]-4′H,6′H-spiro[[1,3]dioxane-2,5′-[1,2,4]triazolo[4,3-a][1]benzazepine]]
11 | 0.2 nM |  | 0.8 nM |  | 49% | Fc1ccc2c(c1)CC1(Cc3nnc([C@H]4CC[C@H](Oc5ccccn5)CC4)n3-2)OCCO1 [Example 96, 8′-fluoro-1′-[trans-4-(pyridin-2-yloxy)cyclohexyl]-4′H,6′H-spiro[1,3-dioxolane-2,5′-[1,2,4]triazolo[4,3-a][1]benzazepine]]
12 | 0.3 nM |  | 2.5 nM |  | 60% | CCN[C@@H]1Cc2cc(Cl)ccc2-n2c(nnc2[C@H]2CC[C@H](Oc3ccccn3)CC2)C1 [Example 99, (5R)-8-chloro-N-ethyl-1-[trans-4-(pyridin-2-yloxy)cyclohexyl]-5,6-dihydro-4H-[1,2,4]triazolo[4,3-a][1]benzazepin-5-amine]
13 | 0.2 nM |  | 1.5 nM |  | 96% | CN[C@@H]1Cc2cc(Cl)ccc2-n2c(nnc2[C@H]2CC[C@H](Oc3ccccn3)CC2)C1 [Example 100, (5R)-8-chloro-N-methyl-1-[trans-4-(pyridin-2-yloxy)cyclohexyl]-5,6-dihydro-4H-[1,2,4]triazolo[4,3-a][1]benzazepin-5-amine]
14 | 0.2 nM |  | 1.3 nM |  | 105% | CN(C)[C@@H]1Cc2cc(Cl)ccc2-n2c(nnc2[C@H]2CC[C@H](Oc3ccccn3)CC2)C1 [Example 101, (5R)-8-chloro-N,N-dimethyl-1-[trans-4-(pyridin-2-yloxy)cyclohexyl]-5,6-dihydro-4H-[1,2,4]triazolo[4,3-a][1]benzazepin-5-amine]
15 | 0.6 nM |  | 1.8 nM |  | 43% | O=C(N[C@@H]1Cc2cc(Cl)ccc2-n2c(nnc2[C@H]2CC[C@H](Oc3ccccn3)CC2)C1)C1CC1 [Example 126, N-{(5R)-8-chloro-1-[trans-4-(pyridin-2-yloxy)cyclohexyl]-5,6-dihydro-4H-[1,2,4]triazolo[4,3-a][1]benzazepin-5-yl}cyclopropanecarboxamide]
16 | 0.1 nM |  | 0.5 nM |  | 108% | Clc1ccc2c(c1)CC1(Cc3nnc(N4CCC(Oc5ccccn5)CC4)n3-2)OCCO1 [Example 157, 8′-chloro-1′-[4-(pyridin-2-yloxy)piperidin-1-yl]-4′H,6′H-spiro[1,3-dioxolane-2,5′-[1,2,4]triazolo[4,3-a][1]benzazepine]]
17 | 0.2 nM |  | 0.9 nM |  | 41% | CO[C@]1(C)CC[C@@H](c2nnc3n2-c2ccc(Cl)cc2CC2(C3)OCCO2)CC1 [Example 198, 8′-chloro-1′-(trans-4-methoxy-4-methylcyclohexyl)-4′H,6′H-spiro[1,3-dioxolane-2,5′-[1,2,4]triazolo[4,3-a][1]benzazepine]]
18 | 0.2 nM |  | 2.7 nM |  | 65% | CO[C@]1(C)CC[C@@H](c2nnc3n2-c2ccc(Cl)cc2CC2(C3)OCCCO2)CC1 [Example 204, 8′-chloro-1′-(trans-4-methoxy-4-methylcyclohexyl)-4′H,6′H-spiro[1,3-dioxane-2,5′-[1,2,4]triazolo[4,3-a][1]benzazepine]]
19 | 0.2 nM |  | 2.7 nM |  | 66% | CO[C@]1(C)CC[C@H](c2nnc3n2-c2ccc(Cl)cc2CC2(C3)OCCCO2)CC1 [Example 205, 8′-chloro-1′-(cis-4-methoxy-4-methylcyclohexyl)-4′,6′H-spiro[1,3-dioxane-2,5′-[1,2,4]triazolo[4,3-a][1]benzazepine]]
